Results on 3 compounds are retold here after patent EP4810483A1, “6- AND 5-HETEROARYL DERIVATIVES AND USE THEREOF” (CMS Research & Development Pte. Ltd., priority 2023, dated 2025).

Where two headings read alike, the source gives them in different places.

Data set [1] can be described thus: Pharmacokinetic evaluation in mice (IV and PO). In kind it is in vivo. As to conditions: mouse, plasma, CD-1 mice; for half-life: IV, read-out: Half-life T1/2 (IV) (converted); for AUC(0-t): PO, read-out: Area under the concentration-time curve AUC0-last PO; for bioavailability: read-out: Bioavailability F; for clearance: read-out: Clearance CL; for Cmax: read-out: Peak plasma concentration Cmax; for Vd: read-out: Volume of distribution Vdss. As for the experimental part: Test Method 2: Pharmacokinetic Evaluation in Mice
Assay method: Test compounds were mixed with 5% DMSO / 60% polyethylene glycol (PEG400) / 35% water, vortexed and sonicated to obtain a clear 0.2 mg/mL solution, which was then filtered through a microporous membrane before use. Male CD-1 mice weighing 25-35 g were selected. The candidate compound solution was administered intravenously at a dose of 1 mg/kg. The candidate compound solution was orally administered at a dose of 5 mg/kg after fasting. Blood samples (25 µL each) were collected at 0.083, 0.25, 0.5, 1, 2, 4, 8, 12 and 24 hours after administration, and placed into commercial anticoagulant tubes pre-containing EDTA-K2. The tubes were centrifuged for 10 minutes to separate plasma, which was then stored at -60°C. The content of the target compound in plasma samples was determined by LC/MS/MS method, and pharmacokinetic parameters were calculated using Phoenix WinNonlin software (Pharsight, USA).
Tlast: time of the last detection point. AUC0-last: (Area Under the Concentration-Time Curve) refers to the area enclosed by the plasma drug concentration curve and the time axis. F (Bioavailability) is a measure of the rate and extent to which a drug is absorbed into the systemic circulation, serving as a critical indicator for evaluating the degree of drug absorption. […]

Another data set addresses T1, hKCNQ2/3 (Homo sapiens, UniProt O43525+O43526).
T1 construct: expressed in transfected cells; host or cells: CHO
As to the kind of experiment: cell-based. From the text: Test Method 1: hKCNQ2/3 Thallium Flux Assay
Test Objective: To test the in vitro concentration-response relationship of compounds using FLIPR thallium flux assay in CHO cell lines stably expressing hKCNQ2/3.
According to the split ratio, the cells were transferred to another T-75 flask containing complete cell growth medium. Note: To maintain logarithmic growth, the cells should be kept in a subconfluent monolayer state. Based on the cell doubling time, the cells were passaged every 2-3 days.
• (1) Day 1 - Cell preparation: Cells were digested as described above, and cell density and viability were determined using a Cell Countess. The volume of the single-cell suspension was adjusted with complete cell growth medium. Then, hKCNQ2/3_CHO cells were seeded onto PDL-precoated 384-well plates at a density of approximately 20,000 cells/well (30 µL/well). The plates were then incubated overnight in a 37°C, 5% CO2 humidified air incubator. • (2) Day 2 - Compound preparation: Test compounds were diluted with dimethyl sulfoxide (DMSO) to stock concentrations and stored in a -20°C freezer. A compound addition program was set up on the ECHO liquid handler, and compounds were added to the plates using the ECHO liquid handler. Retigabine (RTG) was used as a positive control at a highest concentration of 100 µM with 3-fold serial dilutions for a total of 9 doses. Buffer containing 5 mM K^+ and 1 mM Tl^+ was added to the plates. Notes: 1) K2SO4 and Tl2SO4 were prepared in 1× chloride-free buffer. Depending on the voltage-gated potassium channel involved, the concentrations of Tl^+ and K^+ should be adjusted. Tl^+ concentration is approximately 0.5-5 mM, and K^+ concentration is approximately 5-30 mM. 2) Each 1 mM solution of K2SO4 and Tl2SO4 contains 2 mM K^+ and Tl^+; the final concentration should be calculated based on the ion concentration. 3) TlCl readily precipitates and a chloride-free buffer is required. • (3) Day 2 -Assay testing: Once the cells reached the desired confluence, the cell assay plates were removed from the incubator. Assay buffer and diluted Tl^+ dye (Molecular Devices # R8222) were prepared. The medium was discarded using a Bravo liquid handler, and 25 µL of Tl^+ dye was added to each well. After 1 hour of incubation, the cell assay plates, composite plates and FLIPR tips were placed in the FLIPR^TETRA (Molecular Devices, USA) for FLIPR detection. After setting up the tips, baseline readings were taken for 60 seconds, then 12.5 µL was added from the composite plate (3×) to the cell assay plate, and data were recorded for at least 5 minutes. • (4) Data processing: Maximum signals were generated by the FLIPR software. […] Data quality control: S/B > 2.00, Z factor > 0.50.
• (1) Day 1 - Cell preparation: Cells were digested as described above, and cell density and viability were determined using a Cell Countess. The volume of the single-cell suspension was adjusted with complete cell growth medium. Then, hKCNQ2/3_CHO cells were seeded onto PDL-precoated 384-well plates at a density of approximately 20,000 cells/well (30 µL/well). The plates were then incubated overnight in a 37°C, 5% CO2 humidified air incubator. • (2) Day 2 - Compound preparation: Test compounds were diluted with dimethyl sulfoxide (DMSO) to stock concentrations and stored in a -20°C freezer. A compound addition program was set up on the ECHO liquid handler, and compounds were added to the plates using the ECHO liquid handler. Retigabine (RTG) was used as a positive control at a highest concentration of 100 µM with 3-fold serial dilutions for a total of 9 doses. Buffer containing 5 mM K^+ and 1 mM Tl^+ was added to the plates. Notes: 1) K2SO4 and Tl2SO4 were prepared in 1× chloride-free buffer. Depending on the voltage-gated potassium channel involved, the concentrations of Tl^+ and K^+ should be adjusted. Tl^+ concentration is approximately 0.5 mM -5 mM, and K^+ concentration is approximately 5 mM -30 mM.

Data set [2] deals with maximal electroshock-induced epilepsy model. As to the kind of experiment: Maximal electroshock-induced epilepsy model, behavioral pharmacodynamics. Type of data set: in vivo. As to conditions: dose 5 mg/kg, oral, one hour before electrical stimulation; male CD-1 mice. From the text: Assay Example 2: Evaluation of the behavioral pharmacodynamics of the test compounds in a maximal electroshock-induced epilepsy model
This study used behavioral tests in male CD-1 mice to investigate the effects of test compounds on acute epileptic seizures behavior induced by maximal electroshock.
Male CD-1 mice (25 to 35g) were used as the experimental animals and fed with standard feed (Beijing Vital River Laboratory Animal Technology Co., Ltd.).
After arriving at the animal facility, the experimental animals needed to acclimatize for at least one week. The mice were observed daily for vital signs, and randomly divided into groups according to their body weights one day before the drug administration. One hour before the electrical stimulation, different dosages of the test compound were orally administered to each group. On the day of the assay, the male CD-1 mice in each group were anesthetized locally at the cornea with 2% lidocaine. Then, silver bipolar electrodes were used to electrically stimulate the cornea of the mice with 18 mA, 60 Hz, a pulse width of 0.6 ms, and a stimulation time of 1 s to induce seizures. Subsequently, the latency of seizures and the duration of limb rigidity in mice after the electrical stimulation were observed, and the protection rate from seizures for each group was statistically analyzed.
(The maximal electroshock test induces tonic seizures with an electrical stimulus.)

T1 sequence (O43526 whole entry): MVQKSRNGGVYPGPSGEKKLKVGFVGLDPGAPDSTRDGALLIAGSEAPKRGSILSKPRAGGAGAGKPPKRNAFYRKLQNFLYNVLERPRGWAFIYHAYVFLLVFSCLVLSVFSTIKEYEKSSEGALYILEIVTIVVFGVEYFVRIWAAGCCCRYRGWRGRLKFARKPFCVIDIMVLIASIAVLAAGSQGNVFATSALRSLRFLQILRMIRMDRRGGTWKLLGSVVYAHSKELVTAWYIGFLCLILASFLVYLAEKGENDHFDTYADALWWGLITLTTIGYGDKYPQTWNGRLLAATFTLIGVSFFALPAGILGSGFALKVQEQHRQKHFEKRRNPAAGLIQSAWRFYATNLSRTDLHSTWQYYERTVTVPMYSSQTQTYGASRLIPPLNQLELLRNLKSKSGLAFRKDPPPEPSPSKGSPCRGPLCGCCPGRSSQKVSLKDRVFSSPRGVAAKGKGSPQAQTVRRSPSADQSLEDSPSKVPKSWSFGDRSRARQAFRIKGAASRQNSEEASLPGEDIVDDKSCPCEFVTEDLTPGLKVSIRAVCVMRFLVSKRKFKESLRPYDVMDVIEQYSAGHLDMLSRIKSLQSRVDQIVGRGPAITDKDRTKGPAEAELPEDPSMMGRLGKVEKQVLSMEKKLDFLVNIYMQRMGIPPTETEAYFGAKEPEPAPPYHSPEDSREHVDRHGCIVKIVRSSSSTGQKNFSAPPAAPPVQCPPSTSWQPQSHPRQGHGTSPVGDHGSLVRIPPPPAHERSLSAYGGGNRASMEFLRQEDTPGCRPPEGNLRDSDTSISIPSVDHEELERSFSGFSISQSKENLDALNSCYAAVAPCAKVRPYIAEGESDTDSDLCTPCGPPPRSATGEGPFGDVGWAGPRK
T1 sequence (O43525 whole entry): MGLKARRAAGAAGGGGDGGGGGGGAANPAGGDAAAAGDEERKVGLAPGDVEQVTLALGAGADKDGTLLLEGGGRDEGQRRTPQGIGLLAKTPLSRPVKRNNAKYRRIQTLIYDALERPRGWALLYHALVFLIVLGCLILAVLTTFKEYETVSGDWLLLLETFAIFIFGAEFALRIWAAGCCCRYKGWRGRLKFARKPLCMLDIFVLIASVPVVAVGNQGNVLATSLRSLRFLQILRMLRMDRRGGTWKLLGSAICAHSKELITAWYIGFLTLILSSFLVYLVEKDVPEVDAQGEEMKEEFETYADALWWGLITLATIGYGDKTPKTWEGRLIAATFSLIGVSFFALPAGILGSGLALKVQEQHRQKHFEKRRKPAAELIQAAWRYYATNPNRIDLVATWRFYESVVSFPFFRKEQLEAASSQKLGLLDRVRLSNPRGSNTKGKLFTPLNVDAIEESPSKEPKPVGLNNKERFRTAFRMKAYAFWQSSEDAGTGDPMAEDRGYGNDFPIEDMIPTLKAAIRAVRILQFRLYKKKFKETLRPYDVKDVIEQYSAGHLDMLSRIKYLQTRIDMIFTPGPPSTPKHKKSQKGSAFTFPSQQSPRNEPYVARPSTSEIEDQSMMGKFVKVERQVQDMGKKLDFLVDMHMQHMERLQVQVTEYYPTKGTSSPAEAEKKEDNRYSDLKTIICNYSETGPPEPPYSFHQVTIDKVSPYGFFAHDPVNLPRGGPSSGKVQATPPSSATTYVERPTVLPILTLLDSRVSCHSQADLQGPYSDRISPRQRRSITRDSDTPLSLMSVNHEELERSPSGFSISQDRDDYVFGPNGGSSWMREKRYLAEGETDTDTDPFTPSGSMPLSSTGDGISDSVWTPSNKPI

In general, bioavailability refers to the share of a dose that reaches the circulation, judged against a reference dose that is usually intravenous. As a reminder, the EC50 is the concentration giving half of the maximal effect. A higher EC50 goes with a need for much substance. Consider `Cc1c(NC(=O)CC(C)(C)C)n(C)c2cc(Nc3ccc(F)cc3)ccc12` [Compound 1], for which, in data set [1] (dose IV:0.5, PO:2 mg/kg), the half-life was 1.83 h, the AUC(0-t) was found to be 2.04 µM·h, the bioavailability was 79.6% and the clearance was determined as 34.8 mL/min/kg. For the same compound, in data set [1] (dose IV:0.5, PO:2 mg/kg), the Cmax stood at 322 nM and the Vd is 5.16 L/kg. Further, in data set [1] (dose IV:1, PO:5 mg/kg), the half-life was 1.63 h, the AUC(0-t) is 4.57 µM·h, the bioavailability was 83.9% and the clearance worked out at 41.8 mL/min/kg. Further, in data set [1] (dose IV:1, PO:5 mg/kg), the Cmax amounted to 596 nM and the Vd was determined as 5.06 L/kg. At hKCNQ2/3, this compound registered an EC50 of 960 nM. Besides, the “Seizure incidence (%)” value in data set [2] was determined as 16.7%.
Regarding `Cc1c(NC(=O)CC(C)(C)C)n(C)c2cc(Nc3ccc(C(F)(F)F)cc3)ccc12` [Compound 5], in data set [1] (dose IV:0.5, PO:2 mg/kg), the half-life is 5.9 h, the bioavailability was 64%, the clearance amounted to 9.1 mL/min/kg and the Vd worked out at 3.97 L/kg. The same compound showed a concentration for a half-maximal effect (EC50) at hKCNQ2/3 of 520 nM. The “Seizure incidence (%)” value in data set [2] was 16.7%.
`Cc1nc(Nc2ccc3c(C)c(NC(=O)CC(C)(C)C)n(C)c3c2)ccc1F` [Compound 41]: in data set [1] (dose IV:1, PO:5 mg/kg), the half-life is 0.7 h, the AUC(0-t) was 21.4 µM·h, the bioavailability was 78.2% and the clearance was 8.9 mL/min/kg. In data set [1] (dose IV:1, PO:5 mg/kg), the Cmax turned out to be 4580 nM and the Vd is 0.6 L/kg. This compound had an EC50 at hKCNQ2/3 of 290 nM. For the same compound, the “Seizure incidence (%)” value in data set [2] worked out at 0%.
